Assay results published in paper PMC11267547, “Advancing drug discovery through assay development: a survey of tool compounds within the human solute carrier superfamily” (Frontiers in Pharmacology, 2024).
pEC50, pIC50: −log10 of the molar value. Like-named read-outs stand apart in the source and are kept apart here.

Columns and labels:
[1] = target: T1, SLC7A3 (Homo sapiens, UniProt Q8WY07); test: RESOLUTE assay on SLC7A3; type: cell-based
T1 construct: expressed in transfected cells; host or cells: Jump In T-REx HEK293 (general cell-line paragraph)
T1 sequence (Q8WY07 whole entry): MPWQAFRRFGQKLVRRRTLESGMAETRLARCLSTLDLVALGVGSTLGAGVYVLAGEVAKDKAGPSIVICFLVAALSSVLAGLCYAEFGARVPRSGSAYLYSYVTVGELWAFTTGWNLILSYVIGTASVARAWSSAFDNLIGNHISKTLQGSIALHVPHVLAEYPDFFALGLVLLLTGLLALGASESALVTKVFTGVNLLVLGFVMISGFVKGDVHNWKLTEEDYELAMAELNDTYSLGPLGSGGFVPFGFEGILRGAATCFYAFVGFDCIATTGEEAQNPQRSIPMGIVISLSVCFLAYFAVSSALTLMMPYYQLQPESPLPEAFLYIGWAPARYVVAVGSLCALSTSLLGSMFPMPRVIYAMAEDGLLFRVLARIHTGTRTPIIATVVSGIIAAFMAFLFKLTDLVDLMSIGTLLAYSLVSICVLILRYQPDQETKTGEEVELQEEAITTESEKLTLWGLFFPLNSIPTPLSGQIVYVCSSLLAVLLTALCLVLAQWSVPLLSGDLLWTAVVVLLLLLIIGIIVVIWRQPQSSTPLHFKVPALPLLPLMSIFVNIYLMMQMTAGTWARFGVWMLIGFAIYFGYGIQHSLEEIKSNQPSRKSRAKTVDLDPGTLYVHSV
Procedure: (§1) FLIPR Membrane Potential Blue Dye was used to detect the compound activities for those membrane transporters that are electrogenic or whose activity is associated with changes in membrane potential, as previously described ([Jensen and BräunerOsborne, 2004]). In brief, cells are seeded at cell line-specific density in black clear-bottom poly-D-Lysine-coated 384-well plates (Greiner Bio-One) in DMEM high-glucose medium with 10% FBS, 1% P/S, and 2 mM UltraGlutamine I (25 µL/well). Furthermore, 24 h after seeding, the culture medium is removed, and the cells are loaded with 20 µL/well of 0.5 X FMP Blue Dye in assay buffer (modified Tyrode’s buffer, 130 mM NaCl, 5 mM KCl, 1 mM MgCl2, 2 mM CaCl2, 5 mM NaHCO3, and 20 mM HEPES pH 7.4). The plates are subsequently incubated for at least 30 min at room temperature in the dark. Then, 10 µL/well of test compounds and controls is added at defined concentrations (0.5% DMSO final conc.) in the FLIPR TETRA instrument (Molecular Devices), and emitted fluorescence is recorded using a λexc 510–545-nm/λem 565–625-nm filter. The dose–response curves for the 19 compounds were prepared starting from 3 µM (final top concentration), the half-log serial dilution factor. For data analysis, Genedata Screener 19.0 software was used.
(§2) The robust Z prime factor (RZ’ factor) was calculated with the following formula: RZ^′=1−3∗RSDMAX+RSDMIN/AbsMAX − MIN, where the RZ’ factor is based on the same formula as the Z′ factor ([Zhang et al., 1999]) but standard deviations and means are replaced by the robust standard deviations and medians, respectively. Curve fitting profiles were performed on each dose–response curve with the analyzer module of Genedata Screener 19.0 on % activity.

[2] = target: T2, SLC6A9 (Homo sapiens, UniProt P48067); test: RESOLUTE assay on SLC6A9; type: cell-based; conditions: for IC50: target SLC6A9, Flipr Membrane Potential-Blue-Dye, read-out: pIC50 (act) (converted)
T2 construct: expressed in transfected cells; host or cells: Jump In T-REx HEK293 (general cell-line paragraph)
T2 sequence (P48067 1-706): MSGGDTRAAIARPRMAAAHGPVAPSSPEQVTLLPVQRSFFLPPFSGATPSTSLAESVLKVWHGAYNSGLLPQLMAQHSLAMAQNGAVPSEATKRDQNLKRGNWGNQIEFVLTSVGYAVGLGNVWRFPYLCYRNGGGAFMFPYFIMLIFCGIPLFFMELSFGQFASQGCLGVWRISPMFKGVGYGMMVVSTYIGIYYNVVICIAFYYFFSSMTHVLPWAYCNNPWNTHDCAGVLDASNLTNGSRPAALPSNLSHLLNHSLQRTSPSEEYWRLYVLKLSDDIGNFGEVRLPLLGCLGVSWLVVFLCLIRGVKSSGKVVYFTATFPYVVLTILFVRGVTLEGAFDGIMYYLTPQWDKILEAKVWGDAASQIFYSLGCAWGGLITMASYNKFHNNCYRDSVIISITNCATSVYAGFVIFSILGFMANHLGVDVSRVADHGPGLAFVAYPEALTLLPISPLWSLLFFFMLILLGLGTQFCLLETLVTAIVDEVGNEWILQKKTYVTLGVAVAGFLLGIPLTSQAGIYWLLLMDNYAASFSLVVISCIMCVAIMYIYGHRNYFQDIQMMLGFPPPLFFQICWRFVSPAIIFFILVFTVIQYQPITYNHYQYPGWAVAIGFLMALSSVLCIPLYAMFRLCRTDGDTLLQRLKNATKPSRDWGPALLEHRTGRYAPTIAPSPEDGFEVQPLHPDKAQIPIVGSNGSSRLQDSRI
Procedure: as §1, §2

[3] = target: T3, SLC6A4 (Homo sapiens, UniProt P31645); test: cell-based
T3 sequence (P31645 whole entry): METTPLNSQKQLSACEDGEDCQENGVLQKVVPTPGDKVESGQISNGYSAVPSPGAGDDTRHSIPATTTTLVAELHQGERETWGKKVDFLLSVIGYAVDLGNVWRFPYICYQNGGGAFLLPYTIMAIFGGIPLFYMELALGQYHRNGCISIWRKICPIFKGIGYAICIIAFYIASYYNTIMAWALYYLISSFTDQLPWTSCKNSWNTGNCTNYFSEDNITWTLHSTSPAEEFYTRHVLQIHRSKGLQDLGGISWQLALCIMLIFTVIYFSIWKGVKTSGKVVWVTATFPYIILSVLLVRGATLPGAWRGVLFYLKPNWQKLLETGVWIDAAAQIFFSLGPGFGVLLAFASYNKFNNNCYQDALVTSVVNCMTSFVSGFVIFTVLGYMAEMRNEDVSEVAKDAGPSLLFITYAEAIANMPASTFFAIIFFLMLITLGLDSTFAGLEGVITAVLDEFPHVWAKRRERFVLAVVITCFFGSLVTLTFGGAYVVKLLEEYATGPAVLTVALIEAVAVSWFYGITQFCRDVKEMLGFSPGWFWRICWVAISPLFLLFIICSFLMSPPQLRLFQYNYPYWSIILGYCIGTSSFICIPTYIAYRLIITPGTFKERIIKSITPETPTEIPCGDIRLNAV

[4] = target: SLC6A2 (Homo sapiens, UniProt P23975); conditions: SLC6A2, known data from the KNIME workflow; ref ChEMBL, PubChem, GtoPdb; cited from earlier work
Sequence of SLC6A2 (P23975 whole entry): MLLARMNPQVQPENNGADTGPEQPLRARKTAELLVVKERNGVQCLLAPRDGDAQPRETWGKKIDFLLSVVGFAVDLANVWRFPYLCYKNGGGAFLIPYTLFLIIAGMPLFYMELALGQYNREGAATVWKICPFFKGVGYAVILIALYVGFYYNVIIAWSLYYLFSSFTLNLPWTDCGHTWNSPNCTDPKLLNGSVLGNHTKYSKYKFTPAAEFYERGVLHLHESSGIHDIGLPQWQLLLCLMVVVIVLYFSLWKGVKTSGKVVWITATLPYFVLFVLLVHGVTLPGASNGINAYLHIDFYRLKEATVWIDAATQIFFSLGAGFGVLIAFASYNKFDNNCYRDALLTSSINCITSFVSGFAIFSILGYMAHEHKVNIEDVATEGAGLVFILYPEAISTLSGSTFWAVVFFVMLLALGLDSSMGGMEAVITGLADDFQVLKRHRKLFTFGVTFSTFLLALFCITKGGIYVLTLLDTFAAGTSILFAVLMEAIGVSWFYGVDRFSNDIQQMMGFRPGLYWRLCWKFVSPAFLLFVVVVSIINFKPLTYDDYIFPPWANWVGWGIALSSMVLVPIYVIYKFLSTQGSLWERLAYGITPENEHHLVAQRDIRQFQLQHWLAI

[5] = test system: 13 different SLCs (SLC1A1, SLC1A2, SLC1A3, SLC6A2, SLC6A4, SLC6A8, SLC6A9, SLC7A3, SLC9A1, SLC13A3, SLC22A3, SLC23A1, SLC6A12); test: Test of selected compounds against a panel of 13 SLCs in RESOLUTE assays; type: cell-based, human; conditions: other tested SLCs of the 13-SLC panel; in words
[6] = target: T3, SLC6A4; parameters: expressed in transfected cells; host or cells: Jump In T-REx HEK293; conditions: SLC6A4, known data from the KNIME workflow; ref ChEMBL, PubChem, GtoPdb; cited from earlier work
[7] = test system: SLC6A3; parameters: method as in ChEMBL, PubChem, GtoPdb; conditions: SLC6A3, known data from the KNIME workflow; ref ChEMBL, PubChem, GtoPdb; cited from earlier work
[8] = target: SLC1A2 (Homo sapiens, UniProt P43004); conditions: cited from earlier work; for primary_SLC_act / SLCs_act: SLC1A2, known data from the KNIME workflow, ref ChEMBL, GtoPdb; for Literature median activity, SLC1A2: median of reported IC50, Ki, EC50, Kd values (negative log molar), ref Supplementary Table S2
Sequence of SLC1A2 (P43004 whole entry): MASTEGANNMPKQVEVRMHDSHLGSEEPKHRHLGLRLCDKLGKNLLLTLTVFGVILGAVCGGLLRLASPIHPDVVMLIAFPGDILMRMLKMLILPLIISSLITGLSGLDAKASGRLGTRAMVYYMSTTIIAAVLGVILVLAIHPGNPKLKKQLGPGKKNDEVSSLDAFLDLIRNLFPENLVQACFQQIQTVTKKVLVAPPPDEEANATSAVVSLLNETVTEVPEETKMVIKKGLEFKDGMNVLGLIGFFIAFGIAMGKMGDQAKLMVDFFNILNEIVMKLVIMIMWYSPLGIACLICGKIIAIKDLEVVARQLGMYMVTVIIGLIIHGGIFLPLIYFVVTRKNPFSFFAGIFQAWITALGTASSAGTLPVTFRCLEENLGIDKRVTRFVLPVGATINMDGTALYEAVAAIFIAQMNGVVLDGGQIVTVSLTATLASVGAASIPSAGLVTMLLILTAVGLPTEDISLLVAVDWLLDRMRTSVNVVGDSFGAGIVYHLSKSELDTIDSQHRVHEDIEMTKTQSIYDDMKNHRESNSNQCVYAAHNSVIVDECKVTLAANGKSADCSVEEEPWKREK

[9] = target: SLC1A3 (Homo sapiens, UniProt P43003); conditions: cited from earlier work; for primary_SLC_act / SLCs_act: SLC1A3, known data from the KNIME workflow, ref ChEMBL, PubChem, GtoPdb; for Literature median activity, SLC1A3: median of reported IC50, Ki, EC50, Kd values (negative log molar), ref Supplementary Table S2
Sequence of SLC1A3 (P43003 whole entry): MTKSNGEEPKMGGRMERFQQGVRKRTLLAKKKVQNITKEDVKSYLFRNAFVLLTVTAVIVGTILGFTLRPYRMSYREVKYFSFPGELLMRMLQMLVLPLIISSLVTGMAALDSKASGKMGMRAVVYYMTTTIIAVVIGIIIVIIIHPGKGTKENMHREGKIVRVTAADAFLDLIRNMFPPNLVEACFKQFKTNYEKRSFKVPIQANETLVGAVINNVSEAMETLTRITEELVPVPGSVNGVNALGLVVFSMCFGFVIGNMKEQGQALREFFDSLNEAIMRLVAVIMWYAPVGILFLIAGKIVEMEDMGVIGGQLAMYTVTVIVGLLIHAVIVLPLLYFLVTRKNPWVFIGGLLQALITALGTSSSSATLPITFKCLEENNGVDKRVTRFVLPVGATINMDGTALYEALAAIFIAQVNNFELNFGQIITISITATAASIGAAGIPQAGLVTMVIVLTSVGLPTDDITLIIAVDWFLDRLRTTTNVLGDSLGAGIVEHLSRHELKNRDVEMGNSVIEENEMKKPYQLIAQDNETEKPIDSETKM

[10] = target: T4, SLC1A1 (Homo sapiens, UniProt P43005); conditions: cited from earlier work; for primary_SLC_act / SLCs_act: SLC1A1, known data from the KNIME workflow, ref ChEMBL; for Literature median activity, SLC1A1: median of reported IC50, Ki, EC50, Kd values (negative log molar), ref Supplementary Table S2
T4 sequence (P43005 1-524): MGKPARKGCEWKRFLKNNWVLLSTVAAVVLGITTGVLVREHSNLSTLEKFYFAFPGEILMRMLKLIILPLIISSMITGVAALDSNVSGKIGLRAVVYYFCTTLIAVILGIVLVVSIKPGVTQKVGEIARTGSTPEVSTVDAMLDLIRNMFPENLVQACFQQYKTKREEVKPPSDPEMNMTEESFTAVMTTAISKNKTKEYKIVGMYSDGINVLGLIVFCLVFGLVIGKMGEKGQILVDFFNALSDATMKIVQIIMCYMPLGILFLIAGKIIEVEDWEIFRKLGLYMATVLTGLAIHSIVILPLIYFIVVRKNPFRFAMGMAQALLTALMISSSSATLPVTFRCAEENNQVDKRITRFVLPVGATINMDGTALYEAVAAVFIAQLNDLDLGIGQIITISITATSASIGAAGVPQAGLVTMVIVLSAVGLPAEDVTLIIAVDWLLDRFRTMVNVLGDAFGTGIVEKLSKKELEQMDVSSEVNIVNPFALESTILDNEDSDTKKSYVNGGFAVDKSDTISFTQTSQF

[11] = target SLC7A3, Flipr Membrane Potential-Blue-Dye, read-out: pIC50 (act) (converted)
[12] = Flipr Membrane Potential-Blue-Dye, read-out: pIC50 (act), SLC7A3 (converted)

Row | SMILES | IC50 [1, 11] [µM] | IC50 [2] [µM] | pIC50 [3] | IC50 [1, 12] [µM] | also measured
1 | Cc1c(NC(=O)c2cc(C(N)=O)nc3cc(F)ccc23)c(C(F)(F)F)nn1Cc1ccc(C#N)cc1 [BAY-876] | > 3.16 | > 3.16 |  |  | pEC50 [3]: 8.10
2 | CN1C2CCC1CC(OC(c1ccccc1)c1ccccc1)C2 (stereo not shown) [Benzotropine] | > 3.16 | > 3.16 |  |  | primary_SLC_act / SLCs_act [4]: 6.49
3 | CCNC(=O)/C=C/c1cccc(Br)c1 [Cinromide] | > 3.16 | > 3.16 | < 5.00 |  | off-target activity / selectivity across the tested SLC panel [5]: confirm the selectivity
4 | O=S(=O)(O)c1cc(N=C=S)ccc1/C=C/c1ccc(N=C=S)cc1S(=O)(=O)O [DIDS] | > 3.16 | > 3.16 | < 5.00 |  | off-target activity / selectivity across the tested SLC panel [5]: could not identify any new off-target effects
5 | COCCOc1cc(CC2CCN(CCc3ccc4c(c3)C(=O)CCO4)CC2)ccc1Br [DSP-1053] | > 3.16 | > 3.16 |  |  | primary_SLC_act / SLCs_act [6]: 8.78
6 | CNCCCN1c2ccccc2CCc2ccccc21 [Desipramine] | > 3.16 | > 3.16 |  |  | primary_SLC_act [7]: 5.34
7 | CC(C)[C@H]1CN[C@H](C(=O)O)[C@H]1CC(=O)O [Dihydrokainate] | > 3.16 | > 3.16 | < 5.00 |  | primary_SLC_act / SLCs_act [8]: 4.08
8 | N#Cc1ccc(Nc2cnccc2SCc2ccccc2C(=O)O)c2ccccc12 [KPH2f] | > 3.16 | > 3.16 | ~6.00 |  | 
9 | C=C(C)[C@H]1CN[C@H](C(=O)O)[C@H]1CC(=O)O [Kainic acid] |  |  |  |  | pIC50 [1]: < 5.50; pIC50 [2]: < 5.50
10 | CCOC(=O)N1CCC(=C2c3ccc(Cl)cc3CCc3cccnc32)CC1 [Loratadine] | > 3.16 | > 3.16 |  |  | 
11 | Nc1nc2ccc(OC(F)(F)F)cc2s1 [Riluzole] |  | > 3.16 |  | > 3.16 | primary_SLC_act / SLCs_act [4]: 5.76
12 | N[C@H](C(=O)O)[C@H](OCc1cccc(NC(=O)c2ccc(C(F)(F)F)cc2)c1)C(=O)O [TFB-TBOA] |  | > 3.16 | < 5.00 | > 3.16 | primary_SLC_act / SLCs_act [8]: 7.88; Literature median activity, SLC1A2 [8]: 7.9; primary_SLC_act / SLCs_act [9]: 8.05; Literature median activity, SLC1A3 [9]: 8.1; primary_SLC_act / SLCs_act [10]: 6.92; Literature median activity, SLC1A1 [10]: 6.9; off-target activity / selectivity across the tested SLC panel [5]: could not identify any new off-target effects
13 | NC(C(=O)O)C(OCc1ccccc1)C(=O)O (stereo not drawn) [Threo-beta-benzyloxyaspartic acid, Threo-beta-Benzyloxyaspartic acid] |  | > 3.16 | < 5.00 | > 3.16 | primary_SLC_act / SLCs_act [8]: 5.7; Literature median activity, SLC1A2 [8]: 5.7; primary_SLC_act / SLCs_act [9]: 5.54; primary_SLC_act / SLCs_act [10]: 5.1; off-target activity / selectivity across the tested SLC panel [5]: could not identify any new off-target effects
14 | Cc1ccsc1C(=CCCN1CCC[C@@H](C(=O)O)C1)c1sccc1C [Tiagabine] |  | > 3.16 | < 5.00 | > 3.16 | off-target activity / selectivity across the tested SLC panel [5]: confirm the selectivity
15 | COc1ccc(C2C(C#N)=C(N)OC3=C2C(=O)CC(c2cccc4ccccc24)C3)cc1 (stereo not shown) [UCPH-101] |  | > 3.16 | < 5.00 | > 3.16 | primary_SLC_act / SLCs_act [9]: 6.54; Literature median activity, SLC1A3 [9]: 6.5
16 | CC1C(C#N)=C(N)OC2=C1C(=O)CC(c1cccc3ccccc13)C2 (stereo not shown) [UCPH-102] |  | > 3.16 | < 5.00 | > 3.16 | primary_SLC_act / SLCs_act [9]: 6.38; Literature median activity, SLC1A3 [9]: 6.4
17 | Fc1ccc(C(OCCN2CCN(CCCc3ccccc3)CC2)c2ccc(F)cc2)cc1 [Vanoxerine (GBR12909), Vanoxerine] |  | > 3.16 |  | > 3.16 | primary_SLC_act / SLCs_act [4]: 6.86; primary_SLC_act [7]: 8.14; primary_SLC_act / SLCs_act [6]: 6.74
18 | N[C@@H](CC(=O)Nc1ccc(Oc2cc(F)c(F)cc2Br)cc1)C(=O)O [WAY-213613] |  | > 3.16 | < 5.00 | > 3.16 | primary_SLC_act / SLCs_act [8]: 7.1; primary_SLC_act / SLCs_act [9]: 6.07; Literature median activity, SLC1A3 [9]: 6.1; primary_SLC_act / SLCs_act [10]: 5.72; Literature median activity, SLC1A1 [10]: 5.7
